Laboratory results reported in patent US20060265776A1, “Viability” (priority 2003, published 2006).
Entries after “also recorded” stand apart in the source; their conditions may differ.

What was measured:
Arabidopsis plants [1] = assay: Foliar spray application, herbicidal activity; format: in vivo; conditions: 2 mL spray, 5 mM active ingredient, 0.02% (v/v) Tween 20, pH 6.7
Experimental: The inventors tested a range of compounds for their potential herbicidal activity. These consisted of several nonhydrolysable ATP analogues as well as nonhydrolysable analogues of GTP, another nucleotide triphosphate. Arabidopsis plants were grown hydroponically for 2 weeks as described in Example 6B. These plants, still attached to the polyurethane foam discs, were then transferred to phytatrays that contained sand. Plants grown under high humidity conditions, achieved in these enclosed phytatrays, tend to have poor or no development of the waxy cuticle and so are ideal for spray application of solutions with the aid of common surfactants like Tween 20. The plants in each tray were sprayed with 2 mL of an aqueous solution adjusted to pH 6.7 with KOH and containing 5 mM active ingredient and 0.02% (v/v) Tween 20. Control plants were sprayed with the same solution containing only Tween 20 but no active ingredient.

Arabidopsis plants [2] = conditions: co-administered with cycloheximide; cited from earlier work
[3] = tested on: Arabidopsis thaliana cell suspension cultures; format: cell-based; conditions: for cell viability / cell death, in words: ADP 1 mM, AMP 1 mM, ATP 1 mM, glucose-6-phosphate 100 mM, boiled apyrase 50 units/ml, boiled hexokinase 200 units/ml with 100 mM glucose
Experimental: A. thaliana cell cultures were grown as described in example 1. Aliquots of the cell suspension (1.5 mL) were treated with a final concentration of 0, 20, 50, or 100 units/mL of apyrase. […] The dead cells had become buoyant and adhered to the walls of the vials, forming a ring just above the edge of the swirling medium. The ring of cells was sometimes dislodged and fell into the medium, resulting in apyrase-treated cultures having flakes of dead cells at the bottom of the vials.
To quantify the effect of apyrase on cell viability, the ability of the cells to grow and multiply subsequent to treatment was measured after diluting the cultures by over 30 times in fresh medium not containing any additives. This was achieved by transferring the cells treated for 3 days to 50 mL of fresh growth medium and allowing them to grow for a further 4 days. At the end of this period, triplicate 1 mL aliquots were sampled from the cultures and the volume of the cells was measured and expressed as a percentage of the culture volume. The method used to determine the packed cell volume was as follows: 1 mL cell culture aliquots were placed in 1.5 mL microfuge tubes and the cells gently compacted by centrifuging (1000 rpm., 10 minutes) in a swing-out rotor (Grundrotor 11030; Sigma laborzentrifugen GmbH, Oestrode, Germany). The level of the cells was marked on the wall of the tube and the volume of cells determined by measuring the volume of water needed to fill the tube to the marked level. The packed cell volume was expressed as the volume occupied by cells as a percentage of 1000 μL.
In each case the error bars represent the standard deviation.

tobacco plants = assay: Foliar spray on soil-grown tobacco plants; conditions: 5 mM in 0.02% Tween 20, 2 mL spray, three days after treatment
tobacco leaves = assay: Leaf infiltration, tobacco; format: in vivo, Nicotiana tabacum
Experimental: (§1) Tobacco (Nicotiana tabacum), Arabidopsis, and bean (Phaseolus vulgaris) plants were sown in soil and raised in a growth cabinet with a 16-hour photoperiod at 20° C. and 8 hours of darkness at 15° C. The relative humidity was maintained at 60% and the photon flux density was 250 μmolm^−2 s^−1. […] Only the cotyledons of bean plants were treated. The abaxial surface of a small zone of leaf tissue was treated by infiltrating the apoplast with the solution using a syringe and hypodermic needle. The three test solutions had the following concentrations of either: 0.5 units/μL apyrase, 1.85 units/μL hexokinase plus 100 mM glucose, or 1-5 mM AMP-PCP (pH 6.5).

[4] = tested on: Tobacco (Nicotiana tabacum), Arabidopsis, and bean (Phaseolus vulgaris) plants; assay: Leaf infiltration of extracellular ATP depletion systems, whole plants; format: in vivo; conditions: 0.5 units/μL apyrase, 1.85 units/μL hexokinase plus 100 mM glucose, 1-5 mM AMP-PCP (pH 6.5); ATP (pH 6.5)
Experimental: as §1
The concentrations used were the same as defined above unless stated otherwise.

[5] = tested on: Black Mexican sweet corn cells; assay: Cell viability of corn suspension cells; format: cell-based, Zea mays; conditions: 1 mM ATP, 1 mM AMP-PCP, 100 units/mL apyrase, 200 units/mL hexokinase; 100 mM glucose in culture
[6] = tested on: Arabidopsis cell suspension cultures; assay: 2-D DIGE protein spot abundance, AMP-PCP treatment; format: cell-based; conditions: 50 μM AMP-PCP vs water, 72 hours

Compound: [Na+].[Na+].[Na+].[O-]P([O-])([O-])=S [NaPO3S, sodium thiophosphate]
- Effects on Arabidopsis plants after foliar application (Arabidopsis plants [1]): did not cause death and None

Compound: Nc1nc2c(ncn2[C@@H]2O[C@H](COP(=O)(O)OP(=O)(O)OP(O)(O)=S)[C@@H](O)[C@H]2O)c(=O)[nH]1 [GTP-γ-S, guanosine 5′-(γ-thio)triphosphate]
- Effects on Arabidopsis plants after foliar application (Arabidopsis plants [1]): has herbicidal properties; also recorded: Phytotoxic

Compound: Nc1nc2c(ncn2[C@@H]2O[C@H](COP(=O)(O)OP(=O)(O)OP(=O)(O)O)[C@@H](O)[C@H]2O)c(=O)[nH]1 [GTP, guanosine 5′-triphosphate]
- Effects on Arabidopsis plants after foliar application (Arabidopsis plants [1]): does not and None

Compound: Nc1ncnc2c1ncn2[C@@H]1O[C@H](COP(=O)(O)OP(=O)(O)O)[C@@H](O)[C@H]1O [ADP, adenosine 5′-diphosphate]
- Effects on Arabidopsis plants after foliar application (Arabidopsis plants [1]): not phytotoxic and None

Compound: Nc1ncnc2c1ncn2[C@@H]1O[C@H](COP(=O)(O)CP(=O)(O)O)[C@@H](O)[C@H]1O [α,β-methyladenosine 5′ diphosphate]
- cycloheximide-resistance of plants over-expressing ecto-ATPase (Arabidopsis plants [2]): lost their cycloheximide-resistance

Compound: Nc1ncnc2c1ncn2[C@@H]1O[C@H](COP(=O)(O)OP(=O)(O)OP(O)(O)=S)[C@@H](O)[C@H]1O [ATP-γ-S, adenosine 5′-(γ-thio)triphosphate]
- Effects on Arabidopsis plants after foliar application (Arabidopsis plants [1]): had herbicidal activity; also recorded: Phytotoxic

Compound: O=C[C@H](O)[C@@H](O)[C@H](O)[C@H](O)COP(=O)(O)O [glucose-6-phosphate]
- cell viability / cell death, in words [3]: did not affect cell viability

Compound: Nc1ncnc2c1ncn2[C@@H]1O[C@H](COP(=O)(O)O)[C@@H](O)[C@H]1O [AMP]
- cell viability / cell death, in words [3]: did not result in any change in cell viability

Compound: Nc1ncnc2c1ncn2[C@@H]1O[C@H](COP(=O)(O)OP(=O)(O)NP(=O)(O)O)[C@@H](O)[C@H]1O [AMP-PNP, adenosine 5′-(β,γ-imido)triphosphate]
- Effects on Arabidopsis plants after foliar application (Arabidopsis plants [1]): had herbicidal activity; also recorded: Phytotoxic

Compound: Nc1ncnc2c1ncn2C1OC(COP(=O)(O)OP(=O)(O)CP(=O)(O)O)C(O)C1O (stereo not drawn) [AMP-PCP, β,γ-methyleneadenosine 5′-triphosphate]
- state of tobacco plants (tobacco plants): started to die
- local tissue death after infiltration of tobacco leaves (tobacco leaves; 1 mM AMP-PCP, 1 mM ATP, apyrase, hexokinase plus glucose): caused localised tissue death
- state of tobacco plant after treatment of a leaf (tobacco leaves; 5 mM AMP-PCP or equivalent amount of ATP, after 4 days): not only had the treated leaf died (white arrowhead), but so too had portions of some upper, untreated leaves
- necrotic lesions after local leaf infiltration [4]: development of necrotic lesions in the area where the application was made within 2 days of treatment; also recorded: localised necrotic lesions
- viability of corn cells [5]: caused significant cell death
- cell viability with increasing concentration (dose-response), in words ([3]; apyrase 0-100 units/mL, hexokinase 0-200 units/mL with 100 mM glucose, AMP-PCP 0-1.5 mM): loss in cell viability
- Ratio, spot 613 H84453 Probable heat shock protein [imported] [6]: −1.26
- Ratio, spot 690 gi30693102 NADH dehydrogenase (ubiquinone), mitochondrial [6]: −1.44
- Ratio, spot 703 Luminal binding protein 1 precursor (BiP-1) [6]: 1.29
- Ratio, spot 707 Luminal binding protein 1 precursor (BiP-1) [6]: 1.45
- Ratio, spot 740 Heat shock cognate 70 kDa protein 2 (hsc70-2) [6]: −1.22
- Ratio, spot 778 gi1072473 dnaK-type molecular chaperone hsc70.1 [6]: 1.15
- Ratio, spot 795 gi15232682 Heat shock protein hsc70-3 [6]: 1.2
- Ratio, spot 906 gi15219234 ATPase 70 kDa subunit-related protein [6]: 1.19
- Ratio, spot 1063 gi30687521 Putative protein disulfide isomerase [6]: 1.24
- Ratio, spot 1069 gi15232827 Threonine ammonia lyase [6]: −1.23
- Ratio, spot 1074 gi11094242 Cytosolic phosphoglucose isomerase [6]: 1.2
- Ratio, spot 1098 gi288063 Ketol-acid reductoisomerase [6]: −1.12
- Ratio, spot 1135 gi9082270 Alanine aminotransferase [6]: 1.2
- Ratio, spot 1148 gi21593375 Unknown protein [6]: 1.24
- Ratio, spot 1155 gi30684419 Dihydrolipoamide dehydrogenase 2, mitochondrial [6]: 1.34
- Ratio, spot 1187 gi21954071 Putative alanine aminotransferase [6]: 1.41
- Ratio, spot 1196 gi14916970 ATP synthase alpha chain, mitochondrial [6]: 1.31
- Ratio, spot 1200 gi15241168 Tubulin alpha-3/alpha-5 chain (TUA3) [6]: 1.35
- Ratio, spot 1205 gi2493132 Vacuolar ATP synthase subunit B isoform 2 [6]: 1.24
- Ratio, spot 1229 H+-transporting ATP synthase beta chain [6]: 1.4
- Ratio, spot 1241 Enolase (2-phospho-D-glycerate hydrolase) [6]: 1.39
- Ratio, spot 1245 H+-transporting ATP synthase beta chain [6]: 1.23
- Ratio, spot 1254 gi15227559 Tubulin beta-7 chain [6]: −1.2
- Ratio, spot 1257 Enolase (2-phospho-D-glycerate hydrolase) [6]: 1.51
- Ratio, spot 1264 Enolase (2-phospho-D-glycerate hydrolase) [6]: 1.32
- Ratio, spot 1281 gi15234516 Putative thioredoxin [6]: 1.23
- Ratio, spot 1282 Adenosylhomocysteinase [6]: 1.46
- Ratio, spot 1292 Adenosylhomocysteinase [6]: 1.29
- Ratio, spot 1439 gi14594802 Translation initiation factor elf-4A1 [6]: 1.84
- Ratio, spot 1460 gi7485313 Hypothetical protein F10M10.120 [6]: −1.1
- Ratio, spot 1481 gi15234354 S-adenosylmethionine synthetase 2 [6]: −1.3
- Ratio, spot 1497 gi21536853 Putative phosphoglycerate kinase [6]: 1.47
- Ratio, spot 1516 Putative S-adenosylmethionine synthetase [6]: 1.22
- Ratio, spot 1649 gi21593388 12-oxophytodienoate reductase (OPR1) [6]: −1.22
- Ratio, spot 1718 gi15229530 Glutamine synthetase-related protein [6]: −1.13
- Ratio, spot 1748 gi21593240 GAPDH C subunit (GapC) [6]: 1.21
- Ratio, spot 1817 gi3435286 GAPDH C subunit (GapC) [6]: 1.13
- Ratio, spot 1868 gi15226185 Putative fructose-bisphosphate aldolase [6]: −1.35
- Ratio, spot 1892 gi14334740 Putative fructose-bisphosphate aldolase [6]: −1.71
- Ratio, spot 1920 gi15237888 Putative NADP-dependent oxidoreductase (P1) [6]: −1.45
- Ratio, spot 1943 gi25283601 Malate dehydrogenase [EC 1.1.1.37], chloroplast [6]: 1.22
- Ratio, spot 1959 Malate dehydrogenase [NAD], mitochondrial [6]: −1.11
- Ratio, spot 1964 gi15232468 Malate dehydrogenase [NAD], mitochondrial [6]: 1.21
- Ratio, spot 2221 gi21593226 Putative esterase D [6]: −1.24
- Ratio, spot 2282 gi15228883 Expressed protein [6]: −1.74
- Ratio, spot 2370 gi18390982 ATP-dependent Clp protease proteolytic subunit [6]: 1.38
- Ratio, spot 2422 gi20260140 Multicatalytic endopeptidase complex alpha subunit [6]: −1.21
- Ratio, spot 2443 L-ascorbate peroxidase 1, cytosolic (APX1) [6]: −2.51
- Ratio, spot 2552 L-ascorbate peroxidase 1, cytosolic (APX1) [6]: −1.47
- Ratio, spot 2562 gi15224582 Putative glutathione S-transferase [6]: 1.4
- Ratio, spot 2605 gi15239652 Putative quinone reductase [6]: 1.38
- Ratio, spot 2626 gi15228805 20S proteasome beta subunit D (PBD1) [6]: 1.14
- Ratio, spot 2690 gi20138157 Phospholipid hydroperoxide glutathione peroxidase [6]: 1.21
- Ratio, spot 2734 gi18412406 Expressed protein [6]: −1.93
- Ratio, spot 2832 gi30697295 Actin depolymerizing factor 3-like prptein [6]: −1.29
- Ratio, spot 2842 gi15218373 40S ribosomal protein S12 (RPS12A) [6]: −1.3
